Laboratory results reported in patent publication US10457707B2, “Substituted urea depsipeptide analogs as activators of the CLPP endopeptidase” (priority 2015, dated 2019).
Converted amounts (≈) assume the structure as drawn. Read-outs that look alike come from different tables or passages of the source. *1 amine or outer side, *2 acyl side, *3 side chain or, on linkers, in order; H or OH if unused. Where a SMILES comes first, the peptide text is derived from it. Bridges are numbered along the chain shown (N, C = ends). [ ]: non-standard residue; d: D form. The star is where a group is joined. ξ: configuration not given here. Phe(3,5-F2) = N[C@@H](Cc1cc(F)cc(F)c1)C(=O)O; NH(4-OCF3-phenyl) = FC(F)(F)Oc1ccc(N*)cc1; Morpholine(3S-CO) = O=C(O)[C@@H]1COCCN1; Pro(4S-Me) = C[C@@H]1CN[C@H](C(=O)O)C1; Pro(4R-Me) = C[C@H]1CN[C@H](C(=O)O)C1; Hyp = O=C(O)[C@@H]1C[C@@H](O)CN1; NH(4-Et-phenyl) = CCc1ccc(N*)cc1; NH(4-Me-phenyl) = Cc1ccc(N*)cc1; aThr = C[C@H](O)[C@H](N)C(=O)O; Pip = O=C(O)[C@@H]1CCCCN1; NMeA = CN[C@@H](C)C(=O)O; CO = O=C([*:1])[*:2]; ξP = O=C(O)C1CCCN1

Tests used:
Sa-ClpP = target: T1, Sa-ClpP (Staphylococcus aureus, UniProt Q2G036); experiment: ADEP displacement fluorescence polarization assay (FP probe ADEP 2591); assay type: binding
T1 construct: made in house; host or cells: E. coli BL21(DE3)
T1 sequence (Q2G036 1-195): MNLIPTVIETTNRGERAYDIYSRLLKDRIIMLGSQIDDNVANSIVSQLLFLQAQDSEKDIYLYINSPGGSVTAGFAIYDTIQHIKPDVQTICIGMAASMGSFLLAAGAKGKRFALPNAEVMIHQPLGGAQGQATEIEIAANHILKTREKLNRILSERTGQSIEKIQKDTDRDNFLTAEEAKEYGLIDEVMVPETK
In short: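 Master mix of 15 μM S. aureus ClpP with 50 nM TAMRA-labelled ADEP 2591 probe in Tris-HCl pH 8.0, 2% DMSO, was pre-equilibrated 1 h, then incubated with compound 120 min at room temperature. Polarization (ex 530, em 579 nm) was normalized to 200 μM ADEP 2378 and DMSO controls; four-parameter fits, triplicate.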

[1] = test system: Bacillus subtilis, ATCC 23857; experiment: Minimal inhibitory concentration assay (microbroth dilution); assay type: cell-based
In short: (§1)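 CLSI broth microdilution; 2-fold series from 200 μM final; inoculum ~10^5 cfu/mL; 37 °C, aerobic, overnight; visual MIC = lowest conc. without growth. The ClpP-inactivated USA 300 strain is the comparator for ClpP-dependent killing.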

[2] = test system: Staphylococcus aureus, ATCC 29213; experiment: as above; assay type: cell-based; details: ATCC29213, read-out: Minimal Inhibitory Concentrations S. aureus ATCC 29213
In short: as §1

[3] = test system: Staphylococcus aureus, NRS70; experiment: as above; assay type: cell-based
In short: as §1

[4] = test system: Streptococcus pyogenes, ATCC 700294; experiment: as above; assay type: cell-based
In short: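 CLSI broth microdilution: two-fold serial compound dilutions in appropriate broth, inoculated and incubated aerobically overnight at 37° C. MIC read visually as lowest concentration preventing bacterial growth.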

[5] = Bacillus subtilis, ATCC23857; read-out: Minimal Inhibitory Concentrations B. subtilis ATCC 23857
[6] = Staphylococcus aureus, NRS70; read-out: Minimal Inhibitory Concentrations S. aureus NRS70
[7] = Streptococcus pyogenes, ATCC700294; read-out: Minimal Inhibitory Concentrations S. pyogenes ATCC 700294

## CCc1ccc(NC(=O)N[C@@H](Cc2cc(F)cc(F)c2)C(=O)N[C@@H]2C(=O)N3C[C@H](O)C[C@H]3C(=O)N3CCCC[C@H]3C(=O)N[C@@H](C)C(=O)N3C[C@H](C)C[C@H]3C(=O)O[C@H]2C)cc1 [Compound 211, (S)-3-(3,5-difluorophenyl)-2-(3-(4-ethylphenyl)ureido)-N-((2R,6S,8aS,14aS,16R,20S,21S,23aS)-16-hydroxy-2,6,21-trimethyl-5,8,14,19,23-pentaoxooctadecahydro-1H,5H,14H,19H-pyrido[2,1-i]dipyrrolo[2,1-c:2′,1′-l][1]oxa[4,7,10,13]tetraazacyclohexadecin-20-yl)propanamide] ({NH(4-Et-phenyl)-CO}-[Phe(3,5-F2)][aThr][Hyp][Pip]A[Pro(4R-Me)]; ester 2-C)
Sa-ClpP
  IC50: 6.8 ± 0.3 µM
[1]; [5]
  MIC: 0.8 µM (≈ 0.67 µg/mL)
[2]
  MIC: 0.04 µM (≈ 0.0335 µg/mL)
[3]; [6]
  MIC: 0.02 µM (≈ 0.0168 µg/mL)
[4]; [7]
  MIC: < 0.2 µM

## C[C@H]1C[C@H]2C(=O)O[C@@H](C)[C@H](NC(=O)[C@H](Cc3cc(F)cc(F)c3)NC(=O)Nc3ccc(OC(F)(F)F)cc3)C(=O)N3CCC[C@H]3C(=O)N3CCOC[C@H]3C(=O)N[C@@H](C)C(=O)N2C1 [Compound 201, (S)-3-(3,5-difluorophenyl)-2-(3-(4-(trifluoromethoxy)phenyl)ureido)-N-((6aS,12S,13S,15aS,17S,21S,23aS)-13,17,21-trimethyl-6,11,15,20,23-pentaoxooctadecahydro-6H,11H,15H-[1,4]oxazino[3,4-i]dipyrrolo[2,1-c:2′,1′-l][1]oxa[4,7,10,13]tetraazacyclohexadecin-12-yl)propanamide] ({NH(4-OCF3-phenyl)-CO}-[Phe(3,5-F2)][aThr]P[Morpholine(3S-CO)]A[Pro(4S-Me)]; ester 2-C)
Sa-ClpP; displacement of FP probe ADEP 2591 from Sa-ClpP, read-out: ADEP Displacement IC50
  IC50: 6.1 ± 0.4 µM
[1]; [5]
  MIC: 0.024 µM (≈ 0.0211 µg/mL)
[2]
  MIC: 0.049 µM (≈ 0.0431 µg/mL)
[3]; [6]
  MIC: 0.024 µM (≈ 0.0211 µg/mL)
[4]; [7]
  MIC: 0.098 µM (≈ 0.0862 µg/mL)

## Cc1ccc(NC(=O)N[C@@H](Cc2cc(F)cc(F)c2)C(=O)N[C@H]2COC(=O)[C@@H]3C[C@@H](C)CN3C(=O)[C@H](C)NC(=O)[C@@H]3COCCN3C(=O)[C@@H]3C[C@@H](O)CN3C2=O)cc1 [Compound 317, (S)-3-(3,5-difluorophenyl)-N-((6aS,8R,12S,15aS,17R,21S,23aS)-8-hydroxy-17,21-dimethyl-6,11,15,20,23-pentaoxooctadecahydro-6H,11H,15H-[1,4]oxazino[3,4-i]dipyrrolo[2,1-c:2′,1′-l][1]oxa[4,7,10,13]tetraazacyclohexadecin-12-yl)-2-(3-(p-tolyl)ureido)propanamide] ({NH(4-Me-phenyl)-CO}-[Phe(3,5-F2)]S[Hyp][Morpholine(3S-CO)]A[Pro(4R-Me)]; ester 2-C)
Sa-ClpP
  IC50: 7.25 ± 0.5 µM
[1]; Bacillus subtilis, ATCC23857, read-out: Minimal Inhibitory Concentrations B. subtilis ATCC 23857
  MIC: 10 µM (≈ 8.12 µg/mL)
[2]
  MIC: 2.5 µM (≈ 2.03 µg/mL)
[3]; Staphylococcus aureus, NRS70, read-out: Minimal Inhibitory Concentrations S. aureus NRS70
  MIC: 2.5 µM (≈ 2.03 µg/mL)
[4]; Streptococcus pyogenes, ATCC700294, read-out: Minimal Inhibitory Concentrations S. pyogenes ATCC 700294
  MIC: 0.156 µM (≈ 0.127 µg/mL)

## C[C@@H]1NC(=O)[C@H](C)N(C)C(=O)[C@@H]2CCCN2C(=O)[C@@H](NC(=O)[C@H](Cc2ccccc2)NC(=O)Nc2ccc(OC(F)(F)F)cc2)COC(=O)C2CCCN2C1=O (stereo partly drawn) [Compound 213, (2S)-3-phenyl-2-(3-(4-(trifluoromethoxy)phenyl)ureido)-N-((6S,9S,11aS,17S)-6,9,10-trimethyl-5,8,11,16,20-pentaoxohexadecahydro-1H,5H,16H-dipyrrolo[2,1-c:2′,1′-l][1]oxa[4,7,10,13]tetraazacyclohexadecin-17-yl)propanamide] ({NH(4-OCF3-phenyl)-CO}-FSP[NMeA]A[ξP]; ester 2-C)
Sa-ClpP
  IC50: 5 ± 0.4 µM
[1]; [5]
  MIC: < 0.2 µM
[2]
  MIC: 3.12 µM (≈ 2.46 µg/mL)
[3]; [6]
  MIC: 0.78 µM (≈ 0.614 µg/mL)
[4]; [7]
  MIC: 0.39 µM (≈ 0.307 µg/mL)
